{"source": "the RepoRT retention time repository", "note": "Structures can show the parent of a compound that is named as a salt.", "data": [{"assay": "RP, Waters ACQUITY UPLC HSS T3, 150 × 2.1 mm, 1.8 µm, 45 °C, 0.6 mL/min, estimated dead time 0.55 min; A: water + 0.1% formic acid, pH 3; B: acetonitrile + 0.1% formic acid, pH 3; gradient (min/%B) 0/1 0.1/1 10/55 10.15/65 10.30/75 10.45/85 10.60/95 10.70/100 11/100 11.55/100 11.65/1 11.70/1 11.80/1 11.90/1 12/1 12.10/1 12.15/1 12.65/1", "conditions": "stereoisomer not certain", "units": {"LC retention time": "min"}, "values": [{"smiles": "CC(=O)NC(Cc1c[nH]c2ccccc12)C(=O)O", "note": "(stereo unspecified) [N-Acetyltryptophan]", "LC retention time": 4.96}, {"smiles": "O=C(O)CNC(=O)c1ccccc1O", "note": "[Salicyluric acid]", "LC retention time": 4.39}, {"smiles": "O=C(O)CC(CC(=O)O)C(=O)O", "note": "[1,2,3-Propanetricarboxylic acid]", "LC retention time": 1.38}, {"smiles": "O=C1NS(=O)(=O)c2ccccc21", "note": "[Saccharin]", "LC retention time": 2.7}, {"smiles": "O=C(O)C(O)Cc1c[nH]c2ccccc12", "note": "(stereo unspecified) [Indolelactic acid]", "LC retention time": 4.86}, {"smiles": "CC(CCC(=O)NCC(=O)O)C1CCC2C3CCC4CC(OS(=O)(=O)O)CCC4(C)C3CC(O)C12C", "note": "(stereo unspecified) [Glycodeoxycholic acid-3-sulfate]", "LC retention time": 8.94}, {"smiles": "O=C(O)c1ccccc1O", "note": "[Salicylic acid]", "LC retention time": 5.48}, {"smiles": "OCC1OC(OC2(CO)OC(CO)C(O)C2O)C(O)C(O)C1O", "note": "(stereo unspecified) [Sucrose]", "LC retention time": 0.68}, {"smiles": "O=C(O)c1ccc(O)cc1", "note": "[4-Hydroxybenzoic acid]", "LC retention time": 3.16}, {"smiles": "CC(O)C1CCC2C3CCC4CC(OC5OC(C(=O)O)C(O)C(O)C5O)CCC4(C)C3CCC12C", "note": "(stereo unspecified) [Pregnanediol-3-glucuronide]", "LC retention time": 9.23}, {"smiles": "CC(CCC(=O)O)C1CCC2C3C(O)CC4CC(O)CCC4(C)C3CC(O)C12C", "note": "(stereo unspecified) [Cholic acid]", "LC retention time": 9.75}, {"smiles": "Cc1cc2nc3c(=O)[nH]c(=O)nc-3n(CC(O)C(O)C(O)CO)c2cc1C", "note": "(stereo unspecified) [Riboflavin]", "LC retention time": 3.82}, {"smiles": "O=S(=O)(O)Oc1ccccc1", "note": "[Phenol sulfate]", "LC retention time": 3.01}, {"smiles": "O=C(O)c1c(O)cccc1O", "note": "[2,6-Dihydroxybenzoic acid]", "LC retention time": 3.76}, {"smiles": "NC(CCCCn1c(C=O)ccc1CO)C(=O)O", "note": "(stereo unspecified) [Pyrraline]", "LC retention time": 2.49}, {"smiles": "O=C1CCC(C(=O)O)N1", "note": "(stereo unspecified) [Pyroglutamic acid]", "LC retention time": 1.25}, {"smiles": "O=C(O)CCCCCCCC(=O)O", "note": "[Azelaic acid]", "LC retention time": 5.48}, {"smiles": "Cn1c(=O)c2[nH]cnc2n(C)c1=O", "note": "[Theophylline]", "LC retention time": 2.76}, {"smiles": "Cn1c[n+](C2OC(CO)C(O)C2O)c2nc(N)[nH]c(=O)c21", "note": "(stereo unspecified) [7-Methylguanosine]", "LC retention time": 2.05}, {"smiles": "CC(=O)NC(Cc1ccc(O)cc1)C(=O)O", "note": "(stereo unspecified) [N-Acetyltyrosine]", "LC retention time": 2.97}, {"smiles": "CC(=O)NC(CCCN=C(N)N)C(=O)O", "note": "[Na-Acetyl-L-arginine]", "LC retention time": 0.91}, {"smiles": "NC(Cc1ccc(OS(=O)(=O)O)cc1)C(=O)O", "note": "(stereo unspecified) [O-Sulfotyrosine]", "LC retention time": 1.5}, {"smiles": "CCC(C)C(=O)C(=O)O", "note": "(stereo unspecified) [3-Methyl-2-oxovaleric acid]", "LC retention time": 3.22}, {"smiles": "CC(O)(CC(=O)O)CC(=O)O", "note": "[3-Hydroxy-3-methylglutaric acid]", "LC retention time": 1.55}, {"smiles": "O=S(=O)(O)Oc1ccc2[nH]ccc2c1", "note": "[5-Hydroxyindole sulfate]", "LC retention time": 2.81}, {"smiles": "CCC(C)C(NC(C)=O)C(=O)O", "note": "(stereo unspecified) [N-Acetylisoleucine]", "LC retention time": 4.03}, {"smiles": "CC(=O)NC(CCC(N)=O)C(=O)O", "note": "(stereo unspecified) [N-Acetylglutamine]", "LC retention time": 0.978}, {"smiles": "O=C(O)CCCC(=O)O", "note": "[Glutaric acid]", "LC retention time": 1.86}, {"smiles": "O=C(O)C1OC(Oc2c[nH]c3ccccc23)C(O)C(O)C1O", "note": "(stereo unspecified) [Indoxyl glucuronide]", "LC retention time": 3.39}, {"smiles": "NCCc1ccc(OS(=O)(=O)O)c(O)c1", "note": "[Dopamine 4-O-sulfate]", "LC retention time": 1.49}, {"smiles": "CC(=O)NC(Cc1ccccc1)C(=O)O", "note": "(stereo unspecified) [N-Acetylphenylalanine]", "LC retention time": 4.66}, {"smiles": "CC(CCC(=O)O)C1CCC2C3C(=O)CC4CC(O)CCC4(C)C3CC(O)C12C", "note": "(stereo unspecified) [7-Ketodeoxycholic acid]", "LC retention time": 8.65}, {"smiles": "O=C(O)c1cc(=O)[nH]c(=O)[nH]1", "note": "[Orotic acid]", "LC retention time": 0.81}, {"smiles": "O=c1[nH]c(=O)c2ncn(C3OC(CO)C(O)C3O)c2[nH]1", "note": "(stereo unspecified) [Xanthosine]", "LC retention time": 1.83}, {"smiles": "CC(CC(=O)O)C(=O)O", "note": "(stereo unspecified) [Methylsuccinic acid]", "LC retention time": 2.19}, {"smiles": "Nc1nc2c(ncn2C2OC(CO)C(O)C2O)c(=O)[nH]1", "note": "(stereo unspecified) [Guanosine]", "LC retention time": 1.43}, {"smiles": "NC(Cc1ccccc1)C(=O)O", "note": "(stereo unspecified) [Phenylalanine]", "LC retention time": 2.05}, {"smiles": "CCc1ccc(OS(=O)(=O)O)cc1", "note": "[4-Ethylphenylsulfate]", "LC retention time": 5.73}, {"smiles": "O=C(O)CNC(=O)c1ccc(O)cc1", "note": "[4-Hydroxyhippuric acid]", "LC retention time": 2.45}, {"smiles": "O=C(O)CC(O)(CC(=O)O)C(=O)O", "note": "[Citric acid]", "LC retention time": 1.12}, {"smiles": "CC(CCC(=O)NCC(=O)O)C1CCC2C3C(O)CC4CC(O)CCC4(C)C3CCC12C", "note": "(stereo unspecified) [Glycoursodeoxycholic acid]", "LC retention time": 8.4}, {"smiles": "O=C(O)c1cc(O)c(O)c(O)c1", "note": "[Gallic acid]", "LC retention time": 1.72}, {"smiles": "Cn1c(=O)[nH]c2[nH]c(=O)n(C)c2c1=O", "note": "[1,7-Dimethyluric acid]", "LC retention time": 2.57}, {"smiles": "Nc1ncnc2c1ncn2C1OC2COP(=O)(O)OC2C1O", "note": "(stereo unspecified) [Adenosine 3',5'-cyclic monophosphate]", "LC retention time": 1.62}, {"smiles": "CC(=CC(=O)O)C(=O)O", "note": "[Citraconic acid]", "LC retention time": 1.73}, {"smiles": "Cn1c(=O)[nH]c(=O)c2c1[nH]c(=O)n2C", "note": "[3,7-Dimethyluric acid]", "LC retention time": 1.94}, {"smiles": "O=C(O)c1cc(O)ccc1O", "note": "[2,5-Dihydroxybenzoic acid]", "LC retention time": 3.16}, {"smiles": "NCCc1ccc(O)c(OS(=O)(=O)O)c1", "note": "[Dopamine 3-O-sulfate]", "LC retention time": 1.56}, {"smiles": "Cn1c(=O)c2c([nH]c(=O)n2C)n(C)c1=O", "note": "[1,3,7-Trimethyluric acid]", "LC retention time": 2.95}, {"smiles": "O=C(O)C(O)c1ccc(O)cc1", "note": "(stereo unspecified) [p-Hydroxymandelic acid]", "LC retention time": 1.57}, {"smiles": "O=C(O)CC(O)C(=O)O", "note": "(stereo unspecified) [Malic acid]", "LC retention time": 0.752}, {"smiles": "O=C(O)C=Cc1ccc(O)cc1", "note": "[4-Hydroxycinnamic acid]", "LC retention time": 4.35}, {"smiles": "O=C(O)CC(Nc1ncnc2c1ncn2C1OC(CO)C(O)C1O)C(=O)O", "note": "(stereo unspecified) [Succinyladenosine]", "LC retention time": 2.31}, {"smiles": "O=C(O)/C=C/c1cccc(O)c1", "note": "[m-Coumaric acid]", "LC retention time": 4.88}, {"smiles": "CC12CCC3C(CC=C4CC(OS(=O)(=O)O)CCC43C)C1CCC2=O", "note": "(stereo unspecified) [Dehydroepiandrosterone sulfate]", "LC retention time": 7.92}, {"smiles": "CC(CCC(=O)O)C(=O)O", "note": "(stereo unspecified) [2-Methylglutaric acid]", "LC retention time": 2.8}, {"smiles": "CC(C)Cc1ccc(C(C)C(=O)OC2OC(C(=O)O)C(O)C(O)C2O)cc1", "note": "(stereo unspecified) [Ibuprofen acyl glucuronide]", "LC retention time": 8.62}, {"smiles": "CCCc1oc(CCC(=O)O)c(C(=O)O)c1C", "note": "[3-Carboxy-4-methyl-5-propyl-2-furanpropionic acid (CMPF)]", "LC retention time": 8.1}, {"smiles": "CC(CCC(=O)NCCS(=O)(=O)O)C1CCC2C3CCC4CC(OS(=O)(=O)O)CCC4(C)C3CCC12C", "note": "(stereo unspecified) [Taurolithocholic acid 3-sulfate]", "LC retention time": 8.93}, {"smiles": "CC1=CC(=O)NS(=O)(=O)O1", "note": "[Acesulfame]", "LC retention time": 1.9}, {"smiles": "O=c1[nH]c(=O)c2[nH]c(=O)[nH]c2[nH]1", "note": "[Uric acid]", "LC retention time": 1.12}, {"smiles": "O=C(O)CNC(=O)c1cccc(O)c1", "note": "[3-Hydroxyhippuric acid]", "LC retention time": 2.73}, {"smiles": "CC(=O)Nc1ccc(OS(=O)(=O)O)cc1", "note": "[Acetaminophen sulfate]", "LC retention time": 2.26}, {"smiles": "CC12CCC3C(CC=C4CC(OC5OC(C(=O)O)C(O)C(O)C5O)CCC43C)C1CCC2=O", "note": "(stereo unspecified) [Dehydroisoandrosterone 3-glucuronide]", "LC retention time": 7.43}, {"smiles": "CC(C)(O)C(=O)O", "note": "[2-Hydroxyisobutyric acid]", "LC retention time": 1.62}, {"smiles": "O=C(O)c1ccc(CO)o1", "note": "[Sumiki's acid]", "LC retention time": 2.1}]}]}
